The record followed here is US20110038948A1, “Methods of Reducing the Production of Reactive Oxygen Species and Methods of Screening or Identifying Compounds and Compositions that Reduce the Production of Reactive Oxygen Species” (UNIVERSITY OF TENNESSEE RESEARCH FOUNDATION, priority 2005, published 2011).

In one assay the test system is 3T3-L1 adipocytes. As to the kind of experiment: Mitochondrial membrane potential (JC-1). In kind it is cell-based, mouse. To be noted: H2O2 100 nmol/L, 48 hours. How it is done: 3T3-L1 preadipocytes were incubated at a density of 8000 cells/cm^2 (10 cm^2 dish) and grown in Dulbecco's modified Eagle's medium (DMEM) containing 10% FBS and antibiotics (adipocyte medium) at 37° C. in 5% CO2 in air. Confluent preadipocytes were induced to differentiate with a standard differentiation medium consisting of DMEM-F10 (1:1, vol/vol) medium supplemented with 1% FBS, 1 μM dexamethasone, IBMX (0.5 mM) and antibiotics (1% Penicillin-Streptomycin). Preadipocytes were maintained in this differentiation medium for 3 days and subsequently cultured in adipocyte medium. Cultures were re-fed every 2-3 days to allow 90% of cells to reach full differentiation before conducting chemical treatment. Chemicals were freshly diluted in adipocyte medium before treatment. […] Cell viability was measured via trypan blue exclusion.
Mitochondrial membrane potential was analyzed fluorometrically with a lipophilic cationic dye JC-1 (5,5′,6,6′-tetrachloro-1,1′,3,3′-tetraethylbenzimidazol carbocyanine iodide) using a mitochondrial potential detection kit (Biocarta, San Diego, Calif.). Mitochondrial potential was determined as the ratio of red fluorescence (excitation 550 nm, emission 600 nm) and green fluorescence (excitation 485 nm, emission 535 nm) using a fluorescence microplate reader.

Assay [1] deals with C2C12 myotubes. Kind of assay: IL-15 release by myotubes (ELISA). It is filed as cell-based, murine. Conditions: C2C12 myotubes, 48 hours. As for the experimental part: IL-15 release in the medium was determined using ELISA. Data are corrected for DNA content. Values are presented as mean±SEM, n=6. Means with different letter differ with p<0.05.
In general terms: In an ELISA, binding on a coated surface is turned into a signal by an enzyme label.

Assay [2] deals with C2C12 myotubes. Kind of assay: Fatty acid oxidation (palmitate oxidation) in muscle cells. In kind it is cell-based, murine. Conditions: calcitriol 10 nM, 48 hours; p<0.05. As for the experimental part:
FIG. 53: Fatty acid oxidation was determined via palmitate oxidation. […] Data are corrected for DNA content. Values are presented as mean±SEM, n=6. Means with different letter differ with p<0.05.
The adipose tissue-skeletal muscle endocrine axis may play a potential role in regulating metabolic energy partitioning. […] While both calcium and dairy accelerate adipose tissue loss, dairy exerts a substantially greater effect and exerts a protective effect on lean tissue during hypocaloric diets. We have shown that dietary calcium modulation of adiposity is mediated, in part, by suppression of calcitriol, while the additional effect of dairy is mediated by additional bioactive components; these include the high concentration of leucine, a key factor in the regulation of muscle protein turnover. […] However, the effect of leucine and calcium, in regulating this process is unclear. Accordingly, present study was designed to investigate the effect of leucine, calcitriol and calcium on energy metabolism in murine adipocytes and muscle cells. Leucine induced a 41% increase in fatty acid oxidation in C2C12 muscle cells (p<0.001) and decreased fatty acid synthase gene expression by 66% (p<0.001) in 3T3-L1 adipocytes. Calcitriol decreased muscle cell fatty acid oxidation by 17% (p<0.05) and increased adipocyte FAS gene expression by 3-fold (p<0.05).

Assay [3] deals with macrophage inhibitory factor (MIF). As to the kind of experiment: MIF expression in human adipocytes. Conditions: calcitriol 10 nmol/L, 48 hours; p=0.001. It is filed as cell-based. From the text:
Cell culture: Human preadipocytes used in this study were supplied by Zen-Bio (Research Triangle, N.C.). Preadipocytes were inoculated in DMEM/Ham's F-10 medium (DMEM-F10) (1:1, vol/vol) containing 10% FBS, 15 mmol/L HEPES, and antibiotics at a density of 30,000 cells/cm2. Confluent monolayers of preadipocytes were induced to differentiate with a standard differentiation medium consisting of DMEM-F10 (1:1, vol/vol) medium supplemented with 15 mmol/L HEPES, 3% FBS, 33 μmol/L biotin, 17 μmol/L pantothenate, 100 nmol/L insulin, […] methylisobutylxanthine, 1 μmol/L dexamethasone, 1 μmol/L BRL49653, and antibiotics. […]
Cells were washed with fresh adipocyte medium, re-fed with medium containing the indicated treatments, and incubated at 37° C. in 5% CO2 for 48 hours before analysis. Cell viability was measured via trypan blue exclusion.
Adipocyte and muscle 18s, CD14, TNFα, MIP, M-CSF, IL-6 and MCP-1 were quantitatively measured using a Smart Cycler Real Time PCR System (Cepheid, Sunnyvale, Calif.) with a TaqMan 1000 Core Reagent Kit (Applied Biosystems, Branchburg, N.J.). […] Reactions of quantitative RT-PCR for standards and unknown samples were also performed according to the instructions of Smart Cycler System (Cepheid, Sunnyvale, Calif.) and TaqMan Real Time PCR Core Kit (Applied Biosystems, Branchburg, N.J.). […]

In the next assay the test system is NADPH oxidase. As to the kind of experiment: NADPH oxidase expression in cultured adipocytes. In kind it is cell-based, mouse. Conditions: glucose 30 mmol/L alone or plus compound, 48 hours. As for the experimental part: 3T3-L1 preadipocytes were incubated at a density of 8000 cells/cm^2 (10 cm^2 dish) and grown in Dulbecco's modified Eagle's medium (DMEM) containing 10% FBS and antibiotics (adipocyte medium) at 37° C. in 5% CO2 in air. Confluent preadipocytes were induced to differentiate with a standard differentiation medium consisting of DMEM-F10 (1:1, vol/vol) medium supplemented with 1% FBS, 1 μM dexamethasone, IBMX (0.5 mM) and antibiotics (1% Penicillin-Streptomycin). Preadipocytes were maintained in this differentiation medium for 3 days and subsequently cultured in adipocyte medium. Cultures were re-fed every 2-3 days to allow 90% of cells to reach full differentiation before conducting chemical treatment. Chemicals were freshly diluted in adipocyte medium before treatment. Cells were washed with fresh adipocyte medium, re-fed with medium containing the different treatments, and incubated at 37° C. in 5% CO2 in air before analysis. Cell viability was measured via trypan blue exclusion. Adipocyte 18s, cyclin A, NADPH oxidase, and UCP2 were quantitatively measured using a Smart Cycler Real Time PCR System (Cepheid, Sunnyvale, Calif.) with a TaqMan 1000 Core Reagent Kit (Applied Biosystems, Branchburg, N.J.). The primers and probe sets were ordered from Applied Biosystems TaqMan® Assays-on-Demand™ Gene Expression primers and probe set collection according to manufacture's instruction. Pooled adipocyte total RNA was serial-diluted in the range of 1.5625-25 ng and used to establish a standard curve; total RNAs for unknown samples were also diluted in this range. Reactions of quantitative RT-PCR for standards and unknown samples were also performed according to the instructions of Smart Cycler System (Cepheid, Sunnyvale, Calif.) and TaqMan Real Time PCR Core Kit (Applied Biosystems, Branchburg, N.J.). The mRNA quantitation for each sample was further normalized using the corresponding 18s quantitation.

For the molecule `OO` [H2O2, hydrogen peroxide], the “increase in mitochondrial potential” value in the assay with 3T3-L1 adipocytes came out at 72%.

Take `C=C1/C(=C\C=C2/CCC[C@]3(C)[C@@H]([C@H](C)CCCC(C)(C)O)CC[C@@H]23)C[C@@H](O)C[C@@H]1O` [calcitriol, 1,25-(OH)2-D3]: the “effect on IL-15 release” value in the assay with C2C12 myotubes [1] was “inhibitory effects”. Further, the “decrease in muscle cell fatty acid oxidation” value with C2C12 myotubes [2] turned out to be 17%. The “increase in MIF expression” value in assay [3] came to 59%. Also, the “effect on NADPH oxidase expression” value in the assay on NADPH oxidase is given as “stimulated”.
